In patent US10689381B2 (priority 2017, dated 2020):
Where two headings read alike, the source gives them in different places.

Tests used:
[1] = system: L1210; assay: cells; format: cell-based, mouse
Experimental: (§1) A population of cells (>1×10^6 cells/mL as determined with a hemocytometer) was diluted with Dulbecco's Modified Eagle Medium (DMEM, Gibco) containing 10% fetal bovine serum (FBS, Gibco) to give a final concentration of 30,000 cells/mL. To each well of a 96-well plate (Corning® Costar®) was added 100 μL of the cell media solution with a multichannel pipet.
(§2) The test compounds were then added to the plate as follows: test compounds were diluted in DMSO to a concentration of 1 mM. 10-Fold serial dilutions in DMSO were next performed on a separate 96-well plate. Fresh culture media (100 μL) was added to each well of cells resulting in 200 μL of medium per well followed by 2 μL of each test agent. Compounds were tested in duplicate (n=2-8 times) at six concentrations between 0-1000 nM or 0-10000 nM. Following the addition of compound, cultures were incubated for an additional 72 hours.
(§3) The plates were incubated at 37° C. for 5 minutes (L1210) or 15 min (HCT116 and HCT116/VM46).

[2] = system: HCT116; assay: cells; format: cell-based, human; conditions: for IC50: read-out: IC50 HCT116
Experimental: as §1, §2, §3

## CC[C@]1(NC(=O)c2ccnnc2)C[C@H]2CN(CCc3c([nH]c4ccccc34)[C@@](C(=O)OC)(c3cc4c(cc3OC)N(C)[C@H]3[C@@](O)(C(=O)OC)[C@H](OC(C)=O)[C@]5(CC)C=CCN6CC[C@]43[C@@H]65)C2)C1 [Compound 132]
[1]; Table 5
  IC50: 30 nM
[2]; Table 5
  IC50: 9 nM

## CC[C@]1(NC(=O)c2cccc(S(=O)(=O)F)c2)C[C@H]2CN(CCc3c([nH]c4ccccc34)[C@@](C(=O)OC)(c3cc4c(cc3OC)N(C)[C@H]3[C@@](O)(C(=O)OC)[C@H](OC(C)=O)[C@]5(CC)C=CCN6CC[C@]43[C@@H]65)C2)C1 [Compound 89]
[1]; Table 2
  IC50: 40 nM
[2]; Table 2
  IC50: 30 nM

## CC[C@]1(NC(=O)C(C)(C)C)C[C@H]2CN(CCc3c([nH]c4ccccc34)[C@@](C(=O)OC)(c3cc4c(cc3OC)N(C)[C@H]3[C@@](O)(C(=O)OC)[C@H](OC(C)=O)[C@]5(CC)C=CCN6CC[C@]43[C@@H]65)C2)C1 [Compound 14]
[1]; Table 1
  IC50: 2800 nM
[2]; Table 1
  IC50: 3600 nM

## CC[C@]1(NC(=O)c2cc3ccccc3o2)C[C@H]2CN(CCc3c([nH]c4ccccc34)[C@@](C(=O)OC)(c3cc4c(cc3OC)N(C)[C@H]3[C@@](O)(C(=O)OC)[C@H](OC(C)=O)[C@]5(CC)C=CCN6CC[C@]43[C@@H]65)C2)C1 [Compound 160]
[1]; Table 6
  IC50: 1.8 nM
[2]; Table 6
  IC50: 1.1 nM

## CCC1(NC(=O)C2Cc3ccccc3C2)CC2CN(CCc3c([nH]c4ccccc34)C(C(=O)OC)(c3cc4c(cc3OC)N(C)C3C(O)(C(=O)OC)C(OC(C)=O)C5(CC)C=CCN6CCC43C65)C2)C1 (stereo not shown) [Compound 125]
[1]; Table 4
  IC50: 30 nM
[2]; Table 4
  IC50: 15 nM

## CC[C@]1(NC(=O)c2ccc3nccnc3c2)C[C@H]2CN(CCc3c([nH]c4ccccc34)[C@@](C(=O)OC)(c3cc4c(cc3OC)N(C)[C@H]3[C@@](O)(C(=O)OC)[C@H](OC(C)=O)[C@]5(CC)C=CCN6CC[C@]43[C@@H]65)C2)C1 [Compound 155]
[1]; Table 6
  IC50: 0.6 nM
[2]; Table 6
  IC50: 0.6 nM

## CC[C@]1(NC(=O)c2cccc(Cl)c2)C[C@H]2CN(CCc3c([nH]c4ccccc34)[C@@](C(=O)OC)(c3cc4c(cc3OC)N(C)[C@H]3[C@@](O)(C(=O)OC)[C@H](OC(C)=O)[C@]5(CC)C=CCN6CC[C@]43[C@@H]65)C2)C1 [Compound 48]
[1]; Table 2
  IC50: 4.2 nM
[2]; Table 2
  IC50: 2.7 nM

## CCC1(NC(=O)c2coc3ccccc23)CC2CN(CCc3c([nH]c4ccccc34)C(C(=O)OC)(c3cc4c(cc3OC)N(C)C3C(O)(C(=O)OC)C(OC(C)=O)C5(CC)C=CCN6CCC43C65)C2)C1 (stereo not shown) [Compound 159]
[1]; Table 6
  IC50: 4 nM
[2]; Table 6
  IC50: 4.6 nM

## CC[C@]1(NC(=O)c2ccc3cc4ccccc4cc3c2)C[C@H]2CN(CCc3c([nH]c4ccccc34)[C@@](C(=O)OC)(c3cc4c(cc3OC)N(C)[C@H]3[C@@](O)(C(=O)OC)[C@H](OC(C)=O)[C@]5(CC)C=CCN6CC[C@]43[C@@H]65)C2)C1 [Compound 127]
[1]; Table 4
  IC50: 40 nM
[2]; Table 4
  IC50: 60 nM

## CC[C@]1(NC(=O)c2ccc3c(c2)CCCC3)C[C@H]2CN(CCc3c([nH]c4ccc(F)cc34)[C@@](C(=O)OC)(c3cc4c(cc3OC)N(C)[C@H]3[C@@](O)(C(=O)OC)[C@H](OC(C)=O)[C@]5(CC)C=CCN6CC[C@]43[C@@H]65)C2)C1 [Compound 189]
[1]; Table 8, 10′-F compounds
  IC50: 5 nM
[2]; Table 8, 10′-F compounds
  IC50: 6.2 nM

## CCC1(NC(=O)c2ccc3cccc(OC)c3c2)CC2CN(CCc3c([nH]c4ccccc34)C(C(=O)OC)(c3cc4c(cc3OC)N(C)C3C(O)(C(=O)OC)C(OC(C)=O)C5(CC)C=CCN6CCC43C65)C2)C1 (stereo not shown) [Compound 120]
[1]; Table 4
  IC50: 10 nM
[2]; Table 4
  IC50: 13 nM

## CCC1(NC(=O)C2CC2)CC2CN(CCc3c([nH]c4ccccc34)C(C(=O)OC)(c3cc4c(cc3OC)N(C)C3C(O)(C(=O)OC)C(OC(C)=O)C5(CC)C=CCN6CCC43C65)C2)C1 (stereo not shown) [Compound 17]
[1]; Table 1
  IC50: 5.5 nM
[2]; Table 1
  IC50: 6.1 nM

## CC[C@]1(NC(=O)c2ccc(OC)c(C)c2)C[C@H]2CN(CCc3c([nH]c4ccccc34)[C@@](C(=O)OC)(c3cc4c(cc3OC)N(C)[C@H]3[C@@](O)(C(=O)OC)[C@H](OC(C)=O)[C@]5(CC)C=CCN6CC[C@]43[C@@H]65)C2)C1 [Compound 97]
[1]; Table 2
  IC50: 0.6 nM
[2]; Table 2
  IC50: 0.7 nM
[2]; vinblastine-sensitive cell lines
  potency relative to vinblastine (more potent): 10 fold

## CC[C@]1(NC(=O)C(c2ccccc2)c2ccccc2)C[C@H]2CN(CCc3c([nH]c4ccccc34)[C@@](C(=O)OC)(c3cc4c(cc3OC)N(C)[C@H]3[C@@](O)(C(=O)OC)[C@H](OC(C)=O)[C@]5(CC)C=CCN6CC[C@]43[C@@H]65)C2)C1 [Compound 22]
[1]; Table 1
  IC50: 760 nM
[2]; Table 1
  IC50: 3800 nM

## CCC1(NC(=O)c2cncn2C)CC2CN(CCc3c([nH]c4ccccc34)C(C(=O)OC)(c3cc4c(cc3OC)N(C)C3C(O)(C(=O)OC)C(OC(C)=O)C5(CC)C=CCN6CCC43C65)C2)C1 (stereo not shown) [Compound 141]
[1]; Table 5
  IC50: 4 nM
[2]; Table 5
  IC50: 2.2 nM
